In patent publication US20020077365A1, “Method for increasing the effectiveness of antiinfective” (The University of Texas System, priority 2000, published 2002):
Like-named read-outs stand apart in the source and are kept apart here.

Assays:
[1] = tested on: wild-type yeast strain INVSC with plasmid pvtl01-U; test: Yeast filter disk zone of inhibition with fungicide chlorothalonil with or without ecto-phosphatase inhibitor; format: cell-based, S. cerevisiae; details: plates without ecto-phosphatase inhibitor, 48 hours
Experimental: Increasing Yeast Sensitivity to Fungicide. Additional experiment were performed to test the ability of ecto-phosphatase inhibitors to increase the effectiveness of the commonly used fungicide chlorothalonil. Yeast was plated on media with or without an ecto-phosphatase inhibitor of Formula X where a paper filter disk soaked in the fungicide was added to the plate. After 48 hours, the zone of inhibition of yeast growth around the filter disk was calculated.
The wild-type yeast strain INVSC with plasmid pvtl01-U (for selection on media lacking uracil) was used in all experiments and each experiment was performed in triplicate. Media used was made by combining YNB (Bio 101, Vista, Calif.), the drop out supplement CSM-URA (Bio 101, Vista, CA), and glucose in water. […]
Twenty μl of an overnight saturated culture of yeast was plated onto each plate, spread, and allowed to dry for 20 minutes. […] The zone of inhibition of yeast growth around the disk was assessed after 48 hours.
Plates with chlorothalonil disks indeed contained a zone of inhibition surrounding the disk. […] The zone of inhibition was calculated by measuring the radius from the center of the disk to the point of noticeable yeast growth (at least 10 measurements per plate), averaging the radii measurements, and using the average radius of the plates to calculate the circular area of the zone of inhibition.

[2] = tested on: Arabidopsis thaliana plants (wild-type and AtPGP-1 overexpressing); format: in vivo; details: for germination: phosphatase inhibitor 1 mM plus cycloheximide 500 ng/ml; for germination rate: substance alone (cycloheximide 500 ng/ml or phosphatase inhibitor 1 mM), after 10-20 days
Experimental: Plant Growth: Arabidopsis seeds were sown in a solid germination media containing MS salts (Sigma Chemical, St. Louis, Mo.), 2% sucrose, 0.8% agar, and vitamins (Valvekens et al., 1992). For selection assays, one of the following, or a combination of both, was added to media (cooled to less than 50° C. before adding) immediately prior to pouring into plates: cycloheximide at a final concentration of 500 ng/ml; α,β-methyleneadenosine 5′-diphosphate at a final concentration of 1 mM. Plant growth was measured by germination percentage after 10-20 days. All other materials and methods were discussed above in Example 2.

[3] = tested on: S. cerevisiae yeast cells (YMR4 and INVSC, with or without AtPGP-1); test: Yeast growth in suspension with extracellular ATP, adenosine, phosphate and cycloheximide (turbidity OD600); format: cell-based; details: for effect on resistance to cycloheximide: YMR4 cells, added to media with cycloheximide, 72 hours, FIG. 14; for yeast growth in high levels of ATP: 100 mM ATP, FIG. 13
Experimental: Cell lines: Cell lines were the same as those described above in Example 2 and 3. YMR4 MDR1 is the phosphatase mutant yeast strain overexpressing AtPGP-1; YMR4 pVT11 contains vector alone; INVSC MDR1 is the wild-type yeast strain overexpressing AtPGP-1; and INVSC pVT101 contains vector alone.
Selection in drug: To create drug resistant yeast strains, all four cell lines were grown up in the presence of 500 ng/ml of cycloheximide, and transferred to other cycloheximide containing plates after a period of four to six days. This transfer of cell lines and subculturing continued such that the yeast cells grew in the presence of cycloheximide for a period of at least a month.
Growth of cells in suspension for ATP and drug selection experiments: Cells were transferred into 5 ml YNB -URA liquid media for turbidity measurements. All cell lines (both non-drug selected and drug-selected) were grown in media with the addition of either nothing, 500 ng/ml cycloheximide, 100 mM ATP, or 500 ng/ml cycloheximide and 100 mM ATP. Turbidity readings were taken after 48 hours.
Growth of cell lines in suspension for salvage pathway experiments: All cell lines were grown in liquid media either containing drug (for the drug selected lines) or not containing drug (for the non-drug selected lines). When the cultures reached a turbidity of 1.00 as measured at a wavelength of 600 in a spectrophotometer (OD600=1.00), 10 μl of each culture was then removed and placed in either media with nothing added, 3 mM potassium phosphate; 3 mM adenosine; 9 mM potassium phosphate and 3 mM adenosine (for controls); potassium phosphate and cycloheximide; adenosine and cycloheximide; adenosine, cycloheximide, and potassium phosphate. Cell cultures were further grown for 72 hours, and their turbidity was determined by OD600 readings on a spectrophotometer.

[4] = tested on: Saccharomyces cerevisiae INVSC1 and YMR4; test: Yeast growth selection in drug (plates / liquid turbidity); format: cell-based
Source text: Expression of AtPGP-1 in yeast: The AtPGP-1 cDNA (Arabidopsis thaliana MDR gene, accession #X61370) was subdloned into pVT101 downstream of the ADH promoter to create the AtPGP-1/pVT101 construct. AtPGP-1/pVT101 and pVT101 were transformed into Saccharomyces cerevisiae INVSC1 (genotype: MAT, his3-1, leu2, trp1-289, ura3-52) and YMR4 (genotype: MAThis3-11,15, leu2-3, 112ura35, can Res pho5, 3::ura31) by a PEG lithium acetate procedure (Eble, 1992) and selected on uracil dropout medium.
Yeast Growth: Yeast were grown at 30° C. under conditions of constant selection for uracil auxotrophy. YNB (Bio101, Vista, Calif.) supplemented with CSM (uracil dropout) and 2% glucose was used to grow strains having pVT101 constructs. Cycloheximide (Sigma Chemical, St. Louis, Mo.) was added to liquid media or spread on solid media to achieve a final concentration of 500 ng/ml. Nigericin (Sigma Chemical, St. Louis, Mo.) was added to liquid media or spread on solid media to achieve a final concentration of 25 μg/ml. Yeast strains used in cycloheximide selection assays were always propagated in the presence of the cycloheximide on plates and then streaked onto new plates containing drug or no drug, such that induced resistance existed in each strain at the time of the start of the assay. For selection assays on plates, single colonies were streaked; for selection in liquid media 0.01 ml of saturated culture was added to fresh media containing the drug. The plates shown in figures were grown for 3-5 days before photographs were taken. Yeast selection assays in liquid media were quantitated by turbidity as measured by absorbance at OD600.
The same result was obtained when the yeast strains were cultured in nigericin (FIG. 3C, FIG. 3D, FIG. 5B, FIG. 5C). In FIG. 3C and 3D, starting from the top of the dish clockwise, the cells are as follows: INVSC1 (wild-type) overexpressing AtPGP-1, YMk4 containing the vector alone, YMR4 overexpressing AtPGP-I, and INVSC1 containing the vector alone. When grown without drug, all the cells grow (FIG. 3C). […]

[5] = tested on: ecto-apyrase of plasma membrane of cholinergic nerve terminal of Torpedo marmorata electric organs; details: Marti et al., 1996; cited from earlier work
[6] = tested on: Arabidopsis thaliana WS wild-type plants; test: Plant sensitivity to herbicides with or without ecto-phosphatase inhibitor; format: in vivo; details: inhibitor 5 μg/ml; surflan solution 0.2-20 μl/ml in germination media
Experimental: Increasing Plant Sensitivity to Herbicides: Arabidopsis thaliana WS wild-type plants were plated on germination media containing two commonly used herbicides, surflan and pendimethalin, in the presence and absence of an ecto-phosphatase inhibitor of Formula II and monitored for their growth in a 22° C. incubator under constant fluorescent illumination.
More specifically, germination media was prepared containing 20 μl/ml, 10 μl/ml, 2 μl/ml, 1 μl/ml, and 0.2 μl/ml of a surflan solution made at the manufacturer's recommended concentration. Compound of Formula II was added to a portion of the germination media at a final concentration of 5 μg/ml.
Arabidopsis thahiana WS wild-type seeds were surface sterilized in a 20% bleach solution for 20 minutes, washed three times in double distilled waster, and resuspended in 0.1% agarose solution. The seeds were then pipetted onto plates containing approximately 3 ml of germination media containing the various concentrations of surflan with and without compound of Formula II. All plates were placed in a 22° C. incubator under constant fluorescent illumination. Growth was assessed daily.
Similar experiments were performed with pendimethalin in the presence and absence of compound of Formula II.

[7] = YMR4 (extracellular phosphatase deficient), vector alone, cycloheximide 500 ng/ml or nigericin 25 μg/ml

N#Cc1c(Cl)c(Cl)c(Cl)c(C#N)c1Cl [chlorothalonil]
average radius of inhibition [1]: 0.33 in.

Nc1ncnc2c1ncn2[C@@H]1O[C@H](COP(=O)(O)CP(=O)(O)O)[C@@H](O)[C@H]1O [α,β-methyleneadenosine 5′-diphosphate]
germination ([2]; AtPGP-1 overexpressing plants): no germination at all | germination rate ([2]; AtPGP-1 overexpressing plants): 83% | germination ([2]; wild-type plants): no germination at all | germination rate ([2]; wild-type plants): 90%

O=P(O)(O)O [phosphate, potassium phosphate]
effect on resistance to cycloheximide [3]: did not enhance resistance

CO[C@@H]1C[C@@H](C[C@H]2CC[C@H](C)[C@H]([C@@H](C)C(=O)O)O2)O[C@]2(O[C@](C)([C@H]3CC[C@@](C)([C@@H]4O[C@@H]([C@H]5O[C@@](O)(CO)[C@H](C)C[C@@H]5C)C[C@@H]4C)O3)C[C@H]2C)[C@@H]1C [nigericin]
yeast growth in drug [4, 7]: reduced growth

Nc1ncnc2c1ncn2[C@@H]1O[C@H](COP(=O)(O)OP(=O)(O)OP(=O)(O)O)[C@@H](O)[C@H]1O [ATP]
yeast growth in high levels of ATP and drug ([3]; 100 mM ATP plus 500 ng/ml cycloheximide, cell lines previously resistant to drug): unable to grow | yeast growth in high levels of ATP ([3]; cells not previously selected in drug): able to grow | yeast growth in high levels of ATP ([3]; cells previously grown in drug (cycloheximide-selected), not overexpressing AtPGP-1): not able to grow

Nc1ncnc2c1ncn2[C@@H]1O[C@H](CO)[C@@H](O)[C@H]1O [adenosine]
effect on resistance to cycloheximide [3]: did not enhance resistance

C[C@@H]1C[C@@H]([C@H](O)CC2CC(=O)NC(=O)C2)C(=O)[C@@H](C)C1 [cycloheximide]
yeast growth in drug [4, 7]: did not grow | yeast growth in drug ([4]; wild-type INVSC1, cycloheximide 500 ng/ml): did grow | germination rate ([2]; AtPGP-1 overexpressing plants): 50% | germination rate ([2]; wild-type plants): 2%

Cc1ccc(C(=O)Nc2ccc(S(=O)(=O)O)c3cc(S(=O)(=O)O)cc(S(=O)(=O)O)c23)cc1NC(=O)c1cccc(NC(=O)Nc2cccc(C(=O)Nc3cc(C(=O)Nc4ccc(S(=O)(=O)O)c5cc(S(=O)(=O)O)cc(S(=O)(=O)O)c45)ccc3C)c2)c1 [Suramin, 8,8′[Carbonylbis[imino-3,1-phenylenecarbonylimino(4-methyl-3,1-phenylene)carbonylimino]]bis-1,3,5-naphthalenetrisulfonic acid]
inhibition of ecto-apyrase activity [5]: potent non-competitive inhibitor

Cc1cccc(NS(=O)(=O)c2ccc(-c3ccccc3)cc2)c1 [Formula II]
effectiveness of surflan as weed killer in presence of inhibitor [6]: equally effective weed killer at a five fold less concentration
